The results in this text go back to patent publication US20240002379A1, “ASYMMETRIC CONJUGATE COMPOUNDS” (Pheon Therapeutics Ltd., priority 2016, published 2024).

The test system of test [1] is fluorescently labelled DNA duplex 5′-[…]-3′. The test is described as follows: FRET DNA melting, FIG. 17 top sequence. In kind it is binding. The conditions noted are these: suggests interstrand cross-link formation. The source says: (§1) Further FRET DNA melting studies were undertaken on a number of molecules using three fluorescently labelled sequences. The sequences (FIG. 17) were designed to provide additional evidence that the series can form inter- and intrastrand cross-links. Inosines were inserted in place of traditional DNA bases in some cases to limit the number of binding sites available for the compounds to interact with. The short duplexes used in this FRET study are relatively unstable in the duplex form with a melting temperature below 30° C. so that, in the absence of ligand, a large part of the melting occurs below the starting temperature of the experiment. […] Increasing concentrations of 13 cause a greater amount of the melting transition to appear at the higher temperature (i.e. a greater number of the DNA molecules are cross-linked). […]
(§2) The reaction mixture was comprised of 4 μL of 250 mM phosphate buffer (final concentration of 50 mM), 4 μL flourophor and 4 μL quencher molecule of the appropriate oligonucleotide for a final concentration of 0.2 PM, 4 μL 5 M sodium chloride (final concentration of 1 M NaCl), and 4 μL of distilled H2O. […] This mixture was analysed without prior annealing.
(§3) Fluorescence melting profiles were measured using a Roche LightCycler using a total reaction volume of 20 μL. […] Annealing steps and melting steps were all recorded and changes in fluorescence were measured at 520 nm. […]

Test [2] shares this test system. The test is described as follows: FRET DNA melting, FIG. 17 middle sequence. In kind it is binding. The conditions noted are these: suggests interstrand cross-link formation.
Text: as §1, §2, §3

Test [3] has the same test system. The test is described as follows: FRET DNA melting, FIG. 17 bottom sequence. In kind it is binding. Conditions: at higher concentrations; intra-strand cross-links.
Text: as §1, §2, §3

Test [4] has as its system three fluorescently labelled DNA sequences shown in FIG. 17. As to the kind of experiment: FRET DNA melting, the three DNA sequences shown in FIG. 17 together. In kind it is binding. Conditions: different concentrations, all three sequences, vs control DNA. The source says:
Further FRET DNA melting studies were undertaken on a number of molecules using three fluorescently labelled sequences. The sequences (FIG. 17) were designed to provide additional evidence that the series can form inter- and intrastrand cross-links. Inosines were inserted in place of traditional DNA bases in some cases to limit the number of binding sites available for the compounds to interact with. The short duplexes used in this FRET study are relatively unstable in the duplex form with a melting temperature below 30° C. so that, in the absence of ligand, a large part of the melting occurs below the starting temperature of the experiment. […] Increasing concentrations of 13 cause a greater amount of the melting transition to appear at the higher temperature (i.e. a greater number of the DNA molecules are cross-linked). A greater effect for 5′-AIIAGAITTTI′-3′ can be observed at lower concentrations of 13.
Oligonucleotides were obtained from ATDbio (Southampton, UK) in lyophilised form. They were labelled with a fluorophore molecule (F=fluorescein) at the 5′-end and a quencher molecule (Q=dabcyl) at the 3′-end of the complementary strand. Each oligonucleotide was dissolved in distilled H2O to form stock solutions of 100 PM. Working solutions of 5 μM were prepared by diluting the stock solution with distilled H2O.
The following buffers were used: 250 mM phosphate buffer pH 7.4 (consisting of sodium dihydrogen phosphate and sodium phosphate diluted in distilled H2O) and 5 M sodium chloride buffer. A11 buffers and distilled H2O were filtered through a […] filter prior to use.
For the FRET experiments a stock solutions were prepared by dissolving compound (such as compound 13) in DMSO to give a concentration of 10 mM. From this stock solution, working solutions of the desired concentration were prepared by diluting the stock solution with distilled H2O.
The reaction mixture was comprised of 4 μL of 250 mM phosphate buffer (final concentration of 50 mM), 4 μL flourophor and 4 μL quencher molecule of the appropriate oligonucleotide for a final concentration of 0.2 PM, 4 μL 5 M sodium chloride (final concentration of 1 M NaCl), and 4 μL of distilled H2O. This mixture was heated in an Eppendorf tube at 90° C. for 1 min and slowly cooled down to room temperature. This process was carried out to anneal the single strands to double-stranded DNA. Following this, 4 μL of the ligand was added in the desired concentration and the mixture incubated overnight either at room temperature or 4° C. A control sample of DNA only was prepared by mixing 4 μL 250 mM phosphate buffer (final concentration of 50 mM) with 4 μL fluorophore-labelled and 4 μL quencher-labelled oligonucleotides (of the appropriate sequence) to give a final concentration of 0.2 PM, 4 μL 5 M sodium chloride (final concentration of 1 M NaCl) and 4 μL distilled H2O. This mixture was analysed without prior annealing.
Fluorescence melting profiles were measured using a Roche LightCycler using a total reaction volume of 20 μL. Initially, the samples were denatured by heating to 95° C. at a rate of 1° C. min^−1. The samples were then maintained at 95° C. for 5 min before annealing by cooling to 25° C. at 1° C. min^−1. The samples were then held at 25° C. for a further 5 min and finally melted by heating to 95° C. at 1° C. min^−1. Annealing steps and melting steps were all recorded and changes in fluorescence were measured at 520 nm.
Tm values were obtained from the first derivates of the melting profiles using the Roche LightCycler software.

Test [5] deals with LIM1215 cell line (gastric). As to the kind of experiment: MTT cytotoxicity assay, LIM1215. In kind it is cell-based. Conditions: LIM1215; MTT assay, 72 hour incubation; read-out: Cytotoxicity LIM1215 (72 hours). The procedure, abridged: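 Cells seeded at 1800/well in RPMI1640 + 10% FBS, adhered overnight, then exposed to compound 72 h at 37° C. Survival by MTT (500 μg/ml, 4 h), formazan in DMSO read at 540 nm, blank-corrected versus untreated wells; IC50 read from concentration–survival plot.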
For orientation: Tetrazolium dyes change colour on reduction, which living cells bring about.

Test [6] deals with fluorescently labelled DNA duplex 5′-[…]-3′. As to the kind of experiment: FRET DNA melting, FIG. 13 top duplex (interstrand). Format: binding.
Text: (§4) FRET DNA melting studies were undertaken on 13 using two fluorescently labelled sequences. The sequences (FIG. 13) were designed to provide additional evidence that 13 can form inter- and intrastrand cross-links. Inosines were inserted in place of traditional DNA bases to limit the number of binding sites available for 13 to interact with.
(§5) Oligonucleotides were obtained from ATDbio (Southampton, UK) in lyophilised form. They were labelled with a fluorophore molecule (F=fluorescein) at the 5′-end and a quencher molecule (Q=dabcyl) at the 3′-end of the complementary strand. Each oligonucleotide was dissolved in distilled H2O to form stock solutions of 100 PM. Working solutions of 5 μM were prepared by diluting the stock solution with distilled H2O. […]
as §2, §3

The test system is the same in test [7]. As to the kind of experiment: FRET DNA melting, FIG. 13 bottom duplex (intrastrand). Format: binding.
Text: as §4, §5, §2, §3

Broadly, the Tm is the temperature at which the thermal transition is half complete. `COc1cc2c(cc1OCc1cccc(CC(=O)N3C[C@@H](CCl)c4c3cc(O)c3ccccc43)c1)N=C[C@@H]1CCCCN1C2=O` [Compound 42, (S)-3-((3-(2-((S)-1-(Chloromethyl)-5-hydroxy-1,2-dihydro-3H-benzo[e]indol-3-yl)-2-oxoethyl)benzyl)oxy)-2-methoxy-7,8,9,10-tetrahydrobenzo[e]pyrido[1,2-a][1,4]diazepin-12(6aH)-one]: the Tm value in test [1] and in test [2] was roughly 80 °C throughout. In test [3], the midpoint of thermal melting (Tm) is roughly 80 °C. The “effect on melting temperature / DNA stabilisation” value in test [4] is on record as “increases significantly”.

Take `COc1cc2c(cc1OCCCC(=O)N1C[C@@H](CCl)c3c1cc(O)c1ccccc31)N=C[C@@H]1CCCCN1C2=O` [Compound 13, (S)-3-(4-((S)-1-(Chloromethyl)-5-hydroxy-1,2-dihydro-3H-benzo[e]indol-3-yl)-4-oxobutoxy)-2-methoxy-7,8,9,10-tetrahydrobenzo[e]-pyrido[1,2-a][1,4]diazepin-12(6aH)-one]: the IC50 in test [5] was determined as 0.68 nM. Besides, the “change of melting temperature with compound concentration” value in test [6] (FIG. 14 top panel) and in test [7] (FIG. 14 bottom panel) was “increases significantly” in each case. For the same compound, the Tm value in test [6] (duplex alone melts below 30° C., suggests interstrand cross-link) is roughly 65 °C; in test [7] (duplex alone melts below 30° C., suggests intra-strand cross-link) it was 60 °C.
